Assay results as given in PubChem BioAssay (NCI).
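Compound exposure: 48 hours, 5 concentrations, 96-well plates. Abbreviation: GI50, concentration required for 50% inhibition of growth. TGI denotes the concentration required for complete inhibition of growth.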 Where a SMILES comes first, the peptide text is derived from it. [ ]: non-standard residue; d: D form. Phe(ol) = N[C@H](CO)Cc1ccccc1; dIva = CC[C@@](C)(N)C(=O)O; Aib = CC(C)(N)C(=O)O

Experiments:
Assay in all cases: DTP human tumour cell line panel, 48 h
[1] = test system: EKVX NSCLC
[2] = test system: HOP-92 NSCLC
[3] = test system: MDA-MB-231 breast
[4] = test system: NCI/ADR-RES ovarian
[5] = test system: LOX IMVI melanoma
[6] = test system: 786-0 renal
[7] = test system: HCT-116 colon
[8] = test system: CCRF-CEM leukemia
[9] = test system: HCT-15 colon
[10] = test system: U251 CNS
[11] = test system: UO-31 renal
[12] = test system: HCC-2998 colon
[13] = test system: OVCAR-3 ovarian
[14] = test system: HOP-62 NSCLC
[15] = test system: RPMI-8226 leukemia
[16] = test system: OVCAR-5 ovarian
[17] = test system: MCF7 breast
[18] = test system: NCI-H522 lung
[19] = test system: SNB-75 CNS
[20] = test system: RXF 393 renal
[21] = test system: SK-OV-3 ovarian
[22] = test system: SW-620 colon
[23] = test system: A498 renal
[24] = test system: OVCAR-4 ovarian
[25] = test system: UACC-62 melanoma
[26] = test system: BT-549 breast
[27] = test system: SK-MEL-28 melanoma
[28] = test system: SR leukemia
[29] = test system: SF-268 CNS
[30] = test system: MALME-3M melanoma
[31] = test system: SNB-19 CNS
[32] = test system: KM12 colon
[33] = test system: OVCAR-8 ovarian
[34] = test system: COLO 205 colon
[35] = test system: NCI-H23 lung
[36] = test system: SK-MEL-2 melanoma
[37] = test system: A549 NSCLC
[38] = test system: M14 melanoma
[39] = test system: MOLT-4 leukemia
[40] = test system: ACHN renal
[41] = test system: HL-60(TB) leukemia
[42] = test system: T-47D breast
[43] = test system: UACC-257 melanoma
[44] = test system: SK-MEL-5 melanoma
[45] = test system: TK-10 renal
[46] = test system: IGROV1 ovarian
[47] = test system: HS 578T breast
[48] = test system: PC-3 prostate
[49] = test system: NCI-H226 lung
[50] = test system: MDA-MB-435
[51] = test system: HT29 colon
[52] = test system: NCI-H460 lung
[53] = test system: SN12C renal
[54] = test system: K-562 leukemia
[55] = test system: SF-539 CNS
[56] = test system: SF-295 CNS
[57] = test system: CAKI-1 renal
[58] = test system: DU-145 prostate

CC[C@@](C)(NC(=O)C(C)(C)NC(=O)[C@@H](NC(=O)[C@@H]1CCCN1C(=O)C(C)(C)NC(=O)[C@H](CC(C)C)NC(=O)CNC(=O)C(C)(C)NC(=O)[C@@H](NC(=O)C(C)(C)NC(=O)[C@H](CCC(N)=O)NC(=O)[C@H](C)NC(=O)C(C)(C)NC(=O)[C@H](C)NC(=O)C(C)(C)NC(=O)[C@@H]1CCCN1C(=O)C(C)(C)NC(C)=O)C(C)C)C(C)C)C(=O)N[C@@H](CCC(N)=O)C(=O)N[C@@H](CCC(N)=O)C(=O)N[C@H](CO)Cc1ccccc1 (Ac-[Aib]P[Aib]A[Aib]AQ[Aib]V[Aib]GL[Aib]PV[Aib][dIva]QQ[Phe(ol)])
GI50 [1]: > 4250 nM
TGI [1]: > 4250 nM
GI50 [2]: 1060 nM
TGI [2]: 2950 nM
GI50 [3]: 1430 nM
TGI [3]: > 4250 nM
GI50 [4]: > 4250 nM
TGI [4]: > 4250 nM
GI50 [5]: 1360 nM
TGI [5]: > 4250 nM
GI50 [6]: > 4250 nM
TGI [6]: > 4250 nM
GI50 [7]: 1750 nM
TGI [7]: > 4250 nM
GI50 [8]: 2930 nM
TGI [8]: > 4250 nM
GI50 [9]: > 4250 nM
TGI [9]: > 4250 nM
GI50 [10]: 1610 nM
TGI [10]: > 4250 nM
GI50 [11]: > 4250 nM
TGI [11]: > 4250 nM
GI50 [12]: 1960 nM
TGI [12]: > 4250 nM
GI50 [13]: 1140 nM
TGI [13]: > 4250 nM
GI50 [14]: > 4250 nM
TGI [14]: > 4250 nM
GI50 [15]: 265 nM
TGI [15]: 2410 nM
GI50 [16]: 1640 nM
TGI [16]: > 4250 nM
GI50 [17]: 215 nM
TGI [17]: > 4250 nM
GI50 [18]: 873 nM
TGI [18]: 4030 nM
GI50 [19]: 1150 nM
TGI [19]: > 4250 nM
GI50 [20]: 964 nM
TGI [20]: 3110 nM
GI50 [21]: 1550 nM
TGI [21]: > 4250 nM
GI50 [22]: 3340 nM
TGI [22]: > 4250 nM
GI50 [23]: > 4250 nM
TGI [23]: > 4250 nM
GI50 [24]: 1570 nM
TGI [24]: > 4250 nM
GI50 [25]: 1730 nM
TGI [25]: > 4250 nM
GI50 [26]: 966 nM
TGI [26]: 2670 nM
GI50 [27]: 1660 nM
TGI [27]: > 4250 nM
GI50 [28]: 1410 nM
TGI [28]: > 4250 nM
GI50 [29]: 1630 nM
TGI [29]: > 4250 nM
GI50 [30]: 856 nM
TGI [30]: 2140 nM
GI50 [31]: 1270 nM
TGI [31]: > 4250 nM
GI50 [32]: 1470 nM
TGI [32]: > 4250 nM
GI50 [33]: > 4250 nM
TGI [33]: > 4250 nM
GI50 [34]: 1290 nM
TGI [34]: > 4250 nM
GI50 [35]: 1000 nM
TGI [35]: > 4250 nM
GI50 [36]: 1370 nM
TGI [36]: > 4250 nM
GI50 [37]: 2390 nM
TGI [37]: > 4250 nM
GI50 [38]: > 4250 nM
TGI [38]: > 4250 nM
GI50 [39]: 1470 nM
TGI [39]: > 4250 nM
GI50 [40]: > 4250 nM
TGI [40]: > 4250 nM
GI50 [41]: 960 nM
TGI [41]: 2080 nM
GI50 [42]: 974 nM
TGI [42]: 4020 nM
GI50 [43]: 1210 nM
TGI [43]: > 4250 nM
GI50 [44]: 1170 nM
TGI [44]: 3620 nM
GI50 [45]: > 4250 nM
TGI [45]: > 4250 nM
GI50 [46]: 2510 nM
TGI [46]: > 4250 nM
GI50 [47]: 2480 nM
TGI [47]: > 4250 nM
GI50 [48]: 1660 nM
TGI [48]: > 4250 nM
GI50 [49]: > 4250 nM
TGI [49]: > 4250 nM
GI50 [50]: 1160 nM
TGI [50]: > 4250 nM
GI50 [51]: 1720 nM
TGI [51]: > 4250 nM
GI50 [52]: 1520 nM
TGI [52]: > 4250 nM
GI50 [53]: 789 nM
TGI [53]: > 4250 nM
GI50 [54]: 2400 nM
TGI [54]: > 4250 nM
GI50 [55]: 1530 nM
TGI [55]: > 4250 nM
GI50 [56]: > 4250 nM
TGI [56]: > 4250 nM

COc1ccc2c(C3=C(c4cn(C)c5ccccc45)C(=O)NC3=O)coc2c1
GI50 [1]: 593 nM
TGI [1]: > 88400 nM
GI50 [2]: 21300 nM
TGI [2]: 44500 nM
GI50 [3]: 632 nM
TGI [3]: 8110 nM
GI50 [4]: 207 nM
TGI [4]: 15000 nM
GI50 [5]: 558 nM
TGI [5]: 16600 nM
GI50 [6]: 524 nM
TGI [6]: 16500 nM
GI50 [7]: 267 nM
TGI [7]: 12100 nM
GI50 [8]: 286 nM
TGI [8]: 13700 nM
GI50 [9]: 172 nM
TGI [9]: 24400 nM
GI50 [10]: 411 nM
TGI [10]: 13000 nM
GI50 [57]: 160 nM
TGI [57]: 17300 nM
GI50 [11]: 468 nM
TGI [11]: 23500 nM
GI50 [12]: 650 nM
TGI [12]: 10900 nM
GI50 [13]: 193 nM
TGI [13]: 787 nM
GI50 [14]: 416 nM
TGI [14]: 20100 nM
GI50 [15]: 415 nM
TGI [15]: 12600 nM
GI50 [16]: 901 nM
TGI [16]: 30700 nM
GI50 [17]: 208 nM
TGI [17]: 26000 nM
GI50 [18]: 188 nM
TGI [18]: 754 nM
GI50 [19]: 148 nM
TGI [19]: 710 nM
GI50 [20]: 215 nM
TGI [20]: 1240 nM
GI50 [21]: 368 nM
TGI [21]: 47200 nM
GI50 [22]: 176 nM
TGI [22]: > 57900 nM
GI50 [23]: 7450 nM
TGI [23]: 25500 nM
GI50 [24]: 6910 nM
TGI [24]: 65900 nM
GI50 [25]: 186 nM
TGI [25]: 16600 nM
GI50 [26]: 847 nM
TGI [26]: 18200 nM
GI50 [27]: 4950 nM
TGI [27]: 35000 nM
GI50 [28]: 84.9 nM
TGI [28]: 8680 nM
GI50 [29]: 1190 nM
TGI [29]: 27900 nM
GI50 [30]: 12200 nM
TGI [30]: 33000 nM
GI50 [31]: 712 nM
TGI [31]: 70400 nM
GI50 [32]: 347 nM
TGI [32]: 13100 nM
GI50 [33]: 462 nM
TGI [33]: 16500 nM
GI50 [34]: 289 nM
TGI [34]: 1310 nM
GI50 [35]: 804 nM
TGI [35]: 23600 nM
GI50 [36]: 191 nM
TGI [36]: 931 nM
GI50 [37]: 1000 nM
TGI [37]: > 100000 nM
GI50 [38]: 288 nM
TGI [38]: 18600 nM
GI50 [39]: 424 nM
TGI [39]: 33200 nM
GI50 [40]: 798 nM
TGI [40]: 15500 nM
GI50 [41]: 155 nM
TGI [41]: 865 nM
GI50 [42]: 430 nM
TGI [42]: 45500 nM
GI50 [43]: 1440 nM
TGI [43]: 27600 nM
GI50 [44]: 422 nM
TGI [44]: 7300 nM
GI50 [45]: 13600 nM
TGI [45]: 59700 nM
GI50 [46]: 700 nM
TGI [46]: 24400 nM
GI50 [47]: 234 nM
TGI [47]: 3800 nM
GI50 [48]: 471 nM
TGI [48]: > 100000 nM
GI50 [49]: 1520 nM
TGI [49]: 17700 nM
GI50 [50]: 132 nM
TGI [50]: 477 nM
GI50 [51]: 300 nM
TGI [51]: 4830 nM
GI50 [58]: 541 nM
TGI [58]: 19500 nM
GI50 [52]: 353 nM
TGI [52]: 11600 nM
GI50 [53]: 715 nM
TGI [53]: 15300 nM
GI50 [54]: 99.7 nM
TGI [54]: > 100000 nM
GI50 [55]: 272 nM
TGI [55]: 1660 nM
GI50 [56]: 469 nM
TGI [56]: 15100 nM
